From ChEMBL document CHEMBL1128142, “2-aryl-indolyl maleimides - novel and potent inhibitors of protein kinase C” (Bioorg Med Chem Lett, 1995)

Key:
[1] = test system: MCF7; experiment: Inhibition of adriamycin-resistant breast tumor line MCF-7/ADR-RE proliferation; format: functional; details: Homo sapiens
[2] = target: T1, Protein kinase C epsilon type (Homo sapiens, UniProt Q02156); experiment: Inhibition of Protein kinase C epsilon
T1 sequence (Q02156 whole entry): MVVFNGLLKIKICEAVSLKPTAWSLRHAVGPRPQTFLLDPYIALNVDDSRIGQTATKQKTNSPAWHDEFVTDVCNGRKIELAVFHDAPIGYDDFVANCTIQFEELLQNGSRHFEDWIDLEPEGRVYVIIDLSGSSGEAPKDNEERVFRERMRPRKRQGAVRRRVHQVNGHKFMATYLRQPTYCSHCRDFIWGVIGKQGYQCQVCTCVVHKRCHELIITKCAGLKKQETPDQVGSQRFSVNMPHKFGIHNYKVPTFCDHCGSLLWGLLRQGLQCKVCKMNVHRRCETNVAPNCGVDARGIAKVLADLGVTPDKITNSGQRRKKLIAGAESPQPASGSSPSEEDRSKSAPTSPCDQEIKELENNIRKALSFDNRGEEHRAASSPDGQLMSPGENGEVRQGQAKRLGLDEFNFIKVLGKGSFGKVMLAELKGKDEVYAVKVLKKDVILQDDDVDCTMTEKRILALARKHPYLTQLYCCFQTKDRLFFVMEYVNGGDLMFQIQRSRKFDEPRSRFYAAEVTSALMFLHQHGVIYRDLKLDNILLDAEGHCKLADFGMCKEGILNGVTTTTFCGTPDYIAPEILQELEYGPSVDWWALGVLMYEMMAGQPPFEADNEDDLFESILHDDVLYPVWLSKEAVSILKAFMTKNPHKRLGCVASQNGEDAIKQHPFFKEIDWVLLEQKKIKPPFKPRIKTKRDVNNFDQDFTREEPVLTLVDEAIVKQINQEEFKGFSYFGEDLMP

[3] = target: Protein kinase C beta type (Homo sapiens, UniProt P05771); experiment: Inhibition of protein kinase C beta
Sequence of Protein kinase C beta type (P05771 whole entry): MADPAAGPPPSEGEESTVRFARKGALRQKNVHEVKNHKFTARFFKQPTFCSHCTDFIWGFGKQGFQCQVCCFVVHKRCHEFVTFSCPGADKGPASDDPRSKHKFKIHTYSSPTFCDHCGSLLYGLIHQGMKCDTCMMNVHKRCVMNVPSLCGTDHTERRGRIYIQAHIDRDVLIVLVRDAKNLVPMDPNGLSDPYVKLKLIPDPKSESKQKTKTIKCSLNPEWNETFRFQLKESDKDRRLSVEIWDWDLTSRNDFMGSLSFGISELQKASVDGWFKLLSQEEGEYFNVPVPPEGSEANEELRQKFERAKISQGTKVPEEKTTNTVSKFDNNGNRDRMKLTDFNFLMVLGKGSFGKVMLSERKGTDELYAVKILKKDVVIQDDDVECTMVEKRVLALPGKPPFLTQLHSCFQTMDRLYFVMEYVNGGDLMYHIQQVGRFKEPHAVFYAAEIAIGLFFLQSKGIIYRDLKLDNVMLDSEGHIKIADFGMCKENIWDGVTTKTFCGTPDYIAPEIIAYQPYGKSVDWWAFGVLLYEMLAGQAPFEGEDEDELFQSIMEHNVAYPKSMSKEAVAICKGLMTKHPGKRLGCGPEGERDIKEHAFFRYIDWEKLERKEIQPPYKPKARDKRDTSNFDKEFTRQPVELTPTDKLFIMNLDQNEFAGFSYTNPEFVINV

[4] = test system: MDA-N; experiment: Inhibition of breast tumor lines(MDA-N) proliferation; format: functional; details: Homo sapiens

Row | GI50 [1] [nM] | IC50 [2] [nM] | IC50 [3] [nM] | SMILES | GI50 [4] [nM]
1 | 20 |  |  | N=C(N)SCCCn1cc(C2=CC(=O)NC2=O)c2ccccc21 | 
2 | 20 | 10 | 3 | N=C(N)SCCCn1c(-c2cc3ccccc3s2)c(C2=CC(=O)NC2=O)c2ccccc21 | < 10
3 | 100 |  |  | CN(C)CCCn1c(-c2cc3ccccc3s2)c(C2=CC(=O)NC2=O)c2ccccc21 | 
